As usually defined, the IC50 is the concentration at which inhibition is half-maximal. A low value points to inhibition by little substance.

The record followed here is ChEMBL document CHEMBL5728071, “Optically active azabicyclo ring derivative” (2020).

This assay has as its target T1, Menin (Homo sapiens, UniProt O00255).
T1 sequence (O00255 whole entry): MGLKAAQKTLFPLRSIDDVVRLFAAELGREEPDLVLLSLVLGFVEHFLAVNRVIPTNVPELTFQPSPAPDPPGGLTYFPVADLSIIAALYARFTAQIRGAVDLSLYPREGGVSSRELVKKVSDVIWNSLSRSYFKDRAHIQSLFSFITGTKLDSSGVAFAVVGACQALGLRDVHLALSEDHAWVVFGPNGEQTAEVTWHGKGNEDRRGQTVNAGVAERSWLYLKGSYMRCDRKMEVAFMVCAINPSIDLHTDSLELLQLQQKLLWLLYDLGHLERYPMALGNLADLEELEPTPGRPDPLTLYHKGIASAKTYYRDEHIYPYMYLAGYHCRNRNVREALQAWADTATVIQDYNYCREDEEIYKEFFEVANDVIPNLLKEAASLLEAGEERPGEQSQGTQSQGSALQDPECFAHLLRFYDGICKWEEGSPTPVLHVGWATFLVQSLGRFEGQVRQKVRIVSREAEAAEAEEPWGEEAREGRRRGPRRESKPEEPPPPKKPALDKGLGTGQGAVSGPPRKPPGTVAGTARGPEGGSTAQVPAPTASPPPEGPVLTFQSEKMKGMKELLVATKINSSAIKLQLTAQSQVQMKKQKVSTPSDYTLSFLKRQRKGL
Put plainly: After the incubation, the signal was detected with RUBYstar (BMG LABTECH).

`C=C1C[C@H]2CC[C@@H]1N[C@@H]2C(=O)N1CCC2(CC1)CN(c1ncncc1Oc1ccc(F)cc1C(=O)N(C(C)C)C(C)C)C2` registered an IC50 of 7.9 nM.

Molecule `C=C1C[C@H]2CC[C@@H]1N[C@@H]2C(=O)N1CC2(C1)CN(c1ncncc1Oc1ccc(F)cc1C(=O)N(C(C)C)C(C)C)C2` came in with an IC50 of 6.2 nM.
